Test results as given in paper PMC5496796 (Clinical cancer research : an official journal of the …, 2017).
Entries after “also recorded” stand apart in the source; their conditions may differ. Read-outs that look alike come from different tables or passages of the source.

Assays:
[1] = tablet form; ref [25]; cited from earlier work
Plasma pharmacokinetics = format: in vivo, human
[2] = tested on: relapsed or refractory multiple myeloma; assay: Treatment response by IMWG criteria, phase 1/2 trial; format: in vivo, human; details: single-agent ricolinostat
[3] = tested on: acetylated histones (a substrate of class I HDACs); assay: Acetylated histones in CD3+ peripheral blood lymphocytes; format: in vivo, human; details: 1 hour after first dose
[4] = tested on: patients with relapsed or refractory multiple myeloma
[5] = tested on: acetylated tubulin (a substrate of HDAC6); details: for change in acetylated tubulin: 1 hour after first dose
[6] = initial 160 mg daily oral dose, cohort 4′, n=14, mean ± SD
[7] = single agent ricolinostat 160 mg
[8] = single agent ricolinostat 240 mg
[9] = single agent ricolinostat, N=15
[10] = single-agent ricolinostat, 15 patients

Q: For O=C(CCCCCCNC(=O)c1cnc(N(c2ccccc2)c2ccccc2Cl)nc1)NO [ACY-241], which exposure plateau [1] is on record?
A: does not exhibit the exposure plateau

Q: Which results are given for CC(C)C[C@H](NC(=O)[C@H](Cc1ccccc1)NC(=O)c1cnccn1)B(O)O [bortezomib, reference compound]?
A: time of observed Cmax of bortezomib (first plasma sample) (Plasma pharmacokinetics; after i.v. injection, days 1 and 11, with few exceptions): 15 min; Cmax (Plasma pharmacokinetics; human, plasma, mean Cmax of bortezomib, day 1 dose, cohort 4′ ([…]^2 with ricolinostat 160 mg QD), n=14): 24 ± 11 ng/mL; Cmax (Plasma pharmacokinetics; human, plasma, mean Cmax of bortezomib, day 11 dose, cohort 4′ ([…]^2 with ricolinostat 160 mg QD), n=11): 40 ± 15 ng/mL

Q: For O=C(CCCCCCNC(=O)c1cnc(N(c2ccccc2)c2ccccc2)nc1)NO [ricolinostat], which “duration of stable disease, median” value ([2]; 6 patients, range 5 – 30) is on record?
A: 11 weeks

Q: And the “clinical response (minor or partial response)” value ([2]; 15 patients)?
A: nor clinical responses; also recorded: no patients had a minor or partial response

Q: What about the “patients with stable disease” value ([2]; of the 15 patients) of the same compound?
A: 6

Q: And the “drug accumulation upon repeated dosing” value (Plasma pharmacokinetics; bid dosing)?
A: 1.01 ± 0.26

Q: What about the Cmax (Plasma pharmacokinetics; human, plasma, oral, mean Cmax on day 11, bid administration, n=10) of the same compound?
A: 524 ± 150 ng/mL

Q: And the Cmax (Plasma pharmacokinetics; human, plasma, oral, mean Cmax on day 11, qd dosing, n=11)?
A: 648 ± 200 ng/mL

Q: What about the half-life (Plasma pharmacokinetics; human, plasma, po, 160 mg) of the same compound?
A: 3.26 ± 0.46 h

Q: What about the apparent oral clearance (Plasma pharmacokinetics; [6]) of the same compound?
A: 111 ± 25 L/h

Q: What about the “apparent oral total body volume of distribution” value (Plasma pharmacokinetics; [6]) of the same compound?
A: 521 ± 166 L

Q: What about the “dose dependence of exposure (Cmax)” value (Plasma pharmacokinetics; oral 40 to 360 mg, alone or with bortezomib) of the same compound?
A: plateau in exposure at dose levels ≥160 mg; also recorded: no significant increase at doses greater than 160 mg

Q: And the “median time of maximum observed concentration in plasma (Cmax)” value (Plasma pharmacokinetics; oral, initial dose and dose on day 11, range 0.25–2.0 hours)?
A: 1.0 h

Q: And the “drug accumulation upon repeated dosing” value (Plasma pharmacokinetics; qd dosing)?
A: 1.10 ± 0.20

Q: What about the “change in histone acetylation” value [3, 7] of the same compound?
A: unchanged

Q: And the “change in histone acetylation” value [3, 8]?
A: qualitative increase

Q: And the “toxicity, overall” value ([4]; single agent ricolinostat therapy)?
A: neither significant toxicity

Q: And the “Amylase elevation, All grades” value [4, 9]?
A: 0 (0) N (%)

Q: And the “Amylase elevation, Grade 3/4” value [4, 9]?
A: 0 (0) N (%)

Q: And the “Anemia, All grades” value [4, 9]?
A: 3 (20) N (%)

Q: And the “Anemia, Grade 3/4” value [4, 9]?
A: 1 (7) N (%)

Q: And the “Blood creatinine elevation, All grades” value [4, 9]?
A: 5 (33) N (%)

Q: What about the “Blood creatinine elevation, Grade 3/4” value [4, 9] of the same compound?
A: 0 (0) N (%)

Q: What about the “Bronchitis, All grades” value [4, 9] of the same compound?
A: 0 (0) N (%)

Q: What about the “Bronchitis, Grade 3/4” value [4, 9] of the same compound?
A: 0 (0) N (%)

Q: And the “Diarrhea, All grades” value [4, 9]?
A: 3 (20) N (%)

Q: And the “Dyspnea, All grades” value [4, 9]?
A: 1 (7) N (%)

Q: And the “Dyspnea, Grade 3/4” value [4, 9]?
A: 0 (0) N (%)

Q: What about the “Fatigue, All grades” value [4, 9] of the same compound?
A: 4 (27) N (%)

Q: And the “Febrile neutropenia, All grades” value [4, 9]?
A: 0 (0) N (%)

Q: And the “Febrile neutropenia, Grade 3/4” value [4, 9]?
A: 0 (0) N (%)

Q: And the “Hyperglycemia, All grades” value [4, 9]?
A: 0 (0) N (%)

Q: And the “Hyperglycemia, Grade 3/4” value [4, 9]?
A: 0 (0) N (%)

Q: And the “Hypertension, All grades” value [4, 9]?
A: 0 (0) N (%)

Q: What about the “Hypertension, Grade 3/4” value [4, 9] of the same compound?
A: 0 (0) N (%)

Q: And the “Hypokalemia, All grades” value [4, 9]?
A: 1 (7) N (%)

Q: And the “Hypokalemia, Grade 3/4” value [4, 9]?
A: 0 (0) N (%)

Q: What about the “Hyponatremia, All grades” value [4, 9] of the same compound?
A: 1 (7) N (%)

Q: What about the “Hyponatremia, Grade 3/4” value [4, 9] of the same compound?
A: 0 (0) N (%)

Q: And the “Hypophosphatemia, All grades” value [4, 9]?
A: 2 (13) N (%)

Q: And the “Hypophosphatemia, Grade 3/4” value [4, 9]?
A: 1 (7) N (%)

Q: And the “Influenza, All grades” value [4, 9]?
A: 0 (0) N (%)

Q: And the “Influenza, Grade 3/4” value [4, 9]?
A: 0 (0) N (%)

Q: What about the “Nausea, All grades” value [4, 9] of the same compound?
A: 2 (13) N (%)

Q: And the “Nausea, Grade 3/4” value [4, 9]?
A: 0 (0) N (%)

Q: And the “Neutropenia, All grades” value [4, 9]?
A: 2 (13) N (%)

Q: What about the “Neutropenia, Grade 3/4” value [4, 9] of the same compound?
A: 1 (7) N (%)

Q: And the “Peripheral neuropathy, All grades” value [4, 9]?
A: 0 (0) N (%)

Q: What about the “Peripheral neuropathy, Grade 3/4” value [4, 9] of the same compound?
A: 0 (0) N (%)

Q: And the “Pneumonia, All grades” value [4, 9]?
A: 0 (0) N (%)

Q: And the “Pneumonia, Grade 3/4” value [4, 9]?
A: 0 (0) N (%)

Q: And the “Pulmonary embolism, All grades” value [4, 9]?
A: 0 (0) N (%)

Q: And the “Pulmonary embolism, Grade 3/4” value [4, 9]?
A: 0 (0) N (%)

Q: What about the “Thrombocytopenia, All grades” value [4, 9] of the same compound?
A: 2 (13) N (%)

Q: And the “Thrombocytopenia, Grade 3/4” value [4, 9]?
A: 2 (13) N (%)

Q: What about the “Transaminase elevation, All grades” value [4, 9] of the same compound?
A: 1 (7) N (%)

Q: And the “Transaminase elevation, Grade 3/4” value [4, 9]?
A: 0 (0) N (%)

Q: What about the “Vomiting, All grades” value [4, 9] of the same compound?
A: 0 (0) N (%)

Q: What about the “Vomiting, Grade 3/4” value [4, 9] of the same compound?
A: 0 (0) N (%)

Q: And the dose limiting toxicities ([4]; single-agent dose escalation, 40-360 mg daily)?
A: did not observe any dose limiting toxicities

Q: And the maximum tolerated dose ([4]; single-agent dose escalation, up to 360 mg qd)?
A: did not identify a maximum tolerated dose

Q: What about the “QT interval prolongation, serial triplicate electrocardiograms” value ([4]; single-agent ricolinostat) of the same compound?
A: no evidence of QT interval prolongation

Q: What about the “discontinuation because of a treatment emergent adverse event” value ([4]; single-agent ricolinostat) of the same compound?
A: No patient discontinued

Q: And the “adverse events observed during therapy: anemia” value [4, 10]?
A: 20%

Q: What about the “adverse events observed during therapy: diarrhea” value [4, 10] of the same compound?
A: 20%

Q: What about the “adverse events observed during therapy: fatigue” value [4, 10] of the same compound?
A: 27%

Q: And the “adverse events observed during therapy: renal insufficiency” value [4, 10]?
A: 33%

Q: What about the “acetylated tubulin in peripheral blood lymphocytes, dose dependence” value ([5]; samples taken during therapy) of the same compound?
A: dose-dependent increases

Q: What about the “change in acetylated tubulin” value [5, 7] of the same compound?
A: increase

Q: What about the “change in acetylated tubulin” value [5, 8] of the same compound?
A: upward trend
